Source: patent US8247448B2, “Butenoic acid derivatives, processes for the preparation thereof, pharmaceutical compositions comprising them, and use for the treatment of dyslipidaemia, atherosclerosis and diabetes” (Merck Patent GmbH, priority 2003, dated 2012)

Tests used:
Assay type in all cases: cell-based
[1] = tested on: chimeric protein PPARγ-Gal4; experiment: PPAR activation, Gal4 chimera luciferase reporter gene test in co-transfected CV-1 cells; conditions: 50 μM, CV-1 cells (monkey kidney cells), 18 hours contact
Experimental: (§1) The measurement of the PPAR activation was performed according to a technique described by Lehmann et al. (J. Biol. Chem., 270, (1995), 12953-12956).
(§2) CV-1 cells (monkey kidney cells) are co-transfected with an expression vector for the chimeric proteins PPARα-Gal4 or PPARγ-Gal4 and with a “reporter” plasmid that allows the expression of the luciferase gene placed under the control of a promoter containing Gal4 response elements.
(§3) The cells are plated into 96-well microplates and co-transfected using a commercial reagent with the reporter plasmid (pG5-tk-pGL3) and the expression vector for the chimeric protein ([…]). After incubating for 4 hours, whole culture medium (comprising 10% foetal calf serum) is added to the wells. After 24 hours, the medium is removed and replaced with whole medium comprising the test products (50 μM final). The products are left in contact with the cells for 18 hours. The cells are then lysed and the luciferase activity is measured using a luminometer. A PPAR activation factor can then be calculated by means of activation of the expression of the reporter gene induced by the product (relative to the control cells that have not received any product).

[2] = biological target: T1, chimeric protein PPARα-Gal4 (Homo sapiens, UniProt Q07869); experiment: as above; conditions: 50 μM, CV-1 cells (monkey kidney cells), 18 hours contact
T1 construct: Gal4 (fusion partner); expressed in transfected cells; host or cells: CV-1 cells (monkey kidney cells)
T1 sequence (Q07869 239-466 limits assumed): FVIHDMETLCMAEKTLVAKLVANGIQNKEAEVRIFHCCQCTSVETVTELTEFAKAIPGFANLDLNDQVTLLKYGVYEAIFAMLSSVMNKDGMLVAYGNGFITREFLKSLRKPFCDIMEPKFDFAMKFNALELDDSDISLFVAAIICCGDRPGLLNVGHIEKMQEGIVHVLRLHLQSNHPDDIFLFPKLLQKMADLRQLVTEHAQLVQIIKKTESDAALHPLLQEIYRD
Experimental: as §1, §2, §3

[3] = tested on: Gal4 alone; experiment: Control: luciferase reporter test with vector expressing Gal4 alone (no PPAR ligand binding domain); conditions: CV-1 cells; in the presence of the product
Experimental: CV-1 cells (monkey kidney cells) are co-transfected with an expression vector for the chimeric proteins PPARα-Gal4 or PPARγ-Gal4 and with a “reporter” plasmid that allows the expression of the luciferase gene placed under the control of a promoter containing Gal4 response elements. The cells are plated into 96-well microplates and co-transfected using a commercial reagent with the reporter plasmid (pG5-tk-pGL3) and the expression vector for the chimeric protein ([…]). After incubating for 4 hours, whole culture medium (comprising 10% foetal calf serum) is added to the wells. After 24 hours, the medium is removed and replaced with whole medium comprising the test products (50 μM final). The products are left in contact with the cells for 18 hours. The cells are then lysed and the luciferase activity is measured using a luminometer. A PPAR activation factor can then be calculated by means of activation of the expression of the reporter gene induced by the product (relative to the control cells that have not received any product). [drawing 12] at a concentration of 50 μM, activates the chimeric protein PPARα-Gal-4 by a factor of 2.3, and the chimeric protein […] by a factor of 6.4. In the absence of the binding domain for the PPAR α or γ ligand (vector expressing Gal4 alone), the luciferase activity measured in the presence of this product is zero.

`CCOC(=O)C(/C=C/c1ccccc1)Oc1ccccc1` (stereo not drawn) was tested, and the “activation factor of the chimeric protein PPARα-Gal4 (second mention; reporter gene expression relative to control cells)” value [1] was 6.4, the “activation factor of the chimeric protein PPARα-Gal-4 (reporter gene expression relative to control cells)” value [2] was 2.3 and the “luciferase activity in the absence of the binding domain for the PPAR α or γ ligand (vector expressing Gal4 alone)” value [3] was “zero”.
